Where a name gives a salt, the structure may show the parent alone.
Legend:
[1] = biological target: T1, proMMP9(20-445;ΔFnII) (SEQ ID NO:6) (Homo sapiens, UniProt P14780, DEL216-390); test: ThermoFluor with proMMP9(20-445;ΔFnII); conditions: read-out: proMMP9(20-445; ΔFnII) (SEQ ID NO: 6) binding
T1 construct: start methionine (N); made in house; host or cells: E. coli BL21(DE3) RIL
T1 sequence (P14780 with tags, fused parts or gaps DEL216-390): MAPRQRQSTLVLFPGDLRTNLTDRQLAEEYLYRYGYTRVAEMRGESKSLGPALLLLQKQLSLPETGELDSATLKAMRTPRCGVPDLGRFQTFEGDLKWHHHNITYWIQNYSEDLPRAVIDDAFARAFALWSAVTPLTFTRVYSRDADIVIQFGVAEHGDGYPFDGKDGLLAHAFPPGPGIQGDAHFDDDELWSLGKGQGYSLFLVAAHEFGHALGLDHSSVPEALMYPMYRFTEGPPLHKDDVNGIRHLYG
Description: (§1) The ThermoFluor® (TF) assay is a 384-well plate-based binding assay that measures thermal stability of proteins (Biomol Screen 2001, 6, 429-40; Biochemistry 2005, 44, 5258-66). The experiments were carried out using instruments available from Johnson & Johnson Pharmaceutical Research & Development, LLC. TF dye used in all experiments was […] (1,8-ANS) (Invitrogen: A-47).
(§2) Compounds were arranged in a pre-dispensed plate (Greiner Bio-one: 781280), wherein compounds were serially diluted in 100% DMSO across 11 columns within a series. Columns 12 and 24 were used as DMSO reference and contained no compound. For multiple compound concentration-response experiments, the compound aliquots (50 nL) were robotically predispensed directly into black 384-well polypropylene PCR microplates (Abgene: TF-0384/k) using a Cartesian Hummingbird liquid handler (DigiLab, Holliston, Mass.). Following compound dispense, protein and dye solutions were added to achieve the final assay volume of 3 μL. The assay solutions were overlayed with 1 μL of silicone oil (Fluka, type DC 200: 85411) to prevent evaporation.
(§3) Assay plates were robotically loaded onto a thermostatically controlled PCR-type thermal block and then heated from 40 to 90° C. at a ramp-rate of 1° C./min for all experiments. Fluorescence was measured by continuous illumination with UV light (Hamamatsu LC6) supplied via fiber optics and filtered through a band-pass filter (380-400 nm; >6 OD cutoff). Fluorescence emission of the entire 384-well plate was detected by measuring light intensity using a CCD camera (Sensys, Roper Scientific) filtered to detect 500±25 nm, resulting in simultaneous and independent readings of all 384 wells. A single image with 20-sec exposure time was collected at each temperature, and the sum of the pixel intensity in a given area of the assay plate was recorded vs temperature and fit to standard equations to yield the Tm (J Biomol Screen 2001, 6, 429-40).
(§4) Thermodynamic parameters necessary for fitting compound binding for each proMMP were estimated by differential scanning calorimetry (DSC) and from ThermoFluor® data. The heat capacity of unfolding for each protein was estimated from the molecular weight and from ThermoFluor® dosing data.
ThermoFluor® with proMMP9(20-445;ΔFnII) (SEQ ID NO:6)
The protein sample preparations included a desalting buffer exchange step via a PD-10 gravity column (GE Healthcare). The desalting buffer exchange was performed prior to diluting the protein to the final assay concentration of 2.8 μM proMMP9(20-445;ΔFnII) (SEQ ID NO:6). The concentration of proMMP9(20-445;ΔFnII) (SEQ ID NO:6) was determined spectrophotometrically based on a calculated extinction coefficient of ε280=39880 M^−1cm^−1, a calculated molecular weight of 28.2 kDa, and calculated pI of 5.5. ThermoFluor® reference conditions were define as follows: 80 μg/mL (2.8 μM) proMMP9(20-445;ΔFnII) (SEQ ID NO:6), 50 μM 1,8-ANS, pH 7.0 Buffer (50 mM HEPES pH 7.0, 100 mM NaCl, 0.001% Tween-20, 2.5 mM MgCl2, 300 μM CaCl2). The thermodynamic parameters for proMMP9(20-445;ΔFnII) (SEQ ID NO:6) are as follows: Tm (° C.)=72 (+/−0.1), ΔUH(Tm) (cal mol^−1)=160000(+/−5000), ΔUS(Tm) (cal mol^−1 K^−1)=434, ΔUCp (cal mol^−1 K^−1)=2400.

[2] = biological target: T2, proMMP9(67-444;ΔFnII) (SEQ ID NO:5) (Homo sapiens, UniProt P14780, DEL216-390); test: ThermoFluor with proMMP9(67-444;ΔFnII); conditions: read-out: proMMP9(67-444; ΔFnII) (SEQ ID NO: 5) binding
T2 construct: start methionine (N); made in house; host or cells: E. coli BL21(DE3) RIL
T2 sequence (P14780 with tags, fused parts or gaps DEL216-390): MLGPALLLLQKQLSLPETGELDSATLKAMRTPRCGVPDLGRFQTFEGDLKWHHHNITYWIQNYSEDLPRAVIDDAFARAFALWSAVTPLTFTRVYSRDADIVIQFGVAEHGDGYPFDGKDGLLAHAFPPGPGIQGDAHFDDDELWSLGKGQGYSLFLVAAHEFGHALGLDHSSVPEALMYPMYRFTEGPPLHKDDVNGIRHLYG
Description: as §1, §2, §3, §4
ThermoFluor® with proMMP9(67-444;ΔFnII) (SEQ ID NO:5)
The protein sample preparations had to include a desalting buffer exchange step via a PD-10 gravity column (GE Healthcare). The desalting buffer exchange was performed prior to diluting the protein to the final assay concentration of 3.5 μM proMMP9(67-444;ΔFnII) (SEQ ID NO:5). The concentration of proMMP9(67-444;ΔFnII) (SEQ ID NO:5) was determined spectrophotometrically based on a calculated extinction coefficient of ε280=33900 M^−1cm^−1, a calculated molecular weight of 22.6 kDa, and calculated pI of 5.20. ThermoFluor® reference conditions were defined as follows: 80 μg/mL (3.5 μM) proMMP9(67-444;ΔFnII) (SEQ ID NO:5), 50 μM 1,8-ANS, pH 7.0 Buffer (50 mM HEPES pH 7.0, 100 mM NaCl, 0.001% Tween-20, 2.5 mM MgCl2, 300 μM CaCl2). The thermodynamic parameters for proMMP9(67-444;ΔFnII) (SEQ ID NO:5) are as follows: Tm (° C.)=63 (+/−0.1), ΔUH(Tm) (cal mol^−1)=105000(+/−5000), ΔUS(Tm) (cal mol^−1 K^−1)=450, […].

[3] = biological target: T3, full-length proMMP9(1-707) (SEQ ID NO:1) (Homo sapiens, UniProt P14780, R574P); test: proMMP9/MMP3 P126 Activation Assay; assay type: biochemical; conditions: proMMP9(1-707) from HEK293 cells activated by catalytic MMP3
T3 construct: made in house; host or cells: HEK293 (proMMP9, secreted); E. coli (MMP3)
T3 sequence (P14780 20-707 R574P): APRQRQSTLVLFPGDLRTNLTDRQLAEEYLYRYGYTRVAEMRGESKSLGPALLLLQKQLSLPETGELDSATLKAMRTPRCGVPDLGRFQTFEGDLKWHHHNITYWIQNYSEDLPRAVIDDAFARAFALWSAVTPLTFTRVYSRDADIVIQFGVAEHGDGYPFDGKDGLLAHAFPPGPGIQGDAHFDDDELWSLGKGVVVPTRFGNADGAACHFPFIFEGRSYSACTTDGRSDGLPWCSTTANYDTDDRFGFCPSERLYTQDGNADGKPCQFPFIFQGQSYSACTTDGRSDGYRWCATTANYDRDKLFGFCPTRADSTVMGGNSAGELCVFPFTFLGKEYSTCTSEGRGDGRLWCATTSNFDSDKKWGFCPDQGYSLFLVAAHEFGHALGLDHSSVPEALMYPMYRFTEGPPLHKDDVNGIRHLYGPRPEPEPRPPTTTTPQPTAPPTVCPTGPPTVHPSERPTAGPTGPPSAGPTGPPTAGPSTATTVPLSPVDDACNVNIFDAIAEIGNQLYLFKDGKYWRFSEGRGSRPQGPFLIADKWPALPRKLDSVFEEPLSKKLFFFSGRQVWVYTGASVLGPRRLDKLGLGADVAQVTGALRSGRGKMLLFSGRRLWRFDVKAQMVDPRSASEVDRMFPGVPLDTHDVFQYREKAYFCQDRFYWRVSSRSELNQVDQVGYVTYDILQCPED
Description: proMMP9/MMP3 P126 Activation Assay
The reaction volume was 50 μL. […] Reactivity of residual MMP3 towards P-126 substrate was minimal under these conditions.

SMILES | Kd [1] [nM] | Kd [2] [nM] | IC50 [3] [nM]
CC(C)Oc1ccc(S(N)(=O)=O)cc1Nc1nc(-c2ccc(C3=CCN(C(C)C)CC3)cc2)cs1 [Example 15, 4-Isopropoxy-3-((4-(4-(1-isopropyl-1,2,3,6-tetrahydropyridin-4-yl)phenyl)thiazol-2-yl)amino)benzenesulfonamide.TFA] | 17 | 18 | 28
COc1ccc(F)cc1Nc1nc(-c2ccc(OCCN3CCC(F)CC3)cc2)cs1 [Example 68, N-(5-fluoro-2-methoxyphenyl)-4-(4-(2-(4-fluoropiperidin-1-yl)ethoxy)phenyl)thiazol-2-amine.TFA] | > 19000 | 2600 | 1300
NC(=O)c1ccc(OC(F)(F)F)c(Nc2nc(-c3ccc(OCCN4CCC(F)CC4)cc3)cs2)c1 [Example 37, 3-((4-(4-(2-(4-fluoropiperidin-1-yl)ethoxy)phenyl)thiazol-2-yl)amino)-4-(trifluoromethoxy)benzamide.TFA] | 74 | 270 | 360
CC(C)Oc1ccc(S(N)(=O)=O)cc1Nc1nc(-c2ccc(N3CCN(Cc4ccccc4)CC3)cc2)cs1 [Example 6, 3-((4-(4-(4-Benzylpiperazin-1-yl)phenyl)thiazol-2-yl)amino)-4-isopropoxybenzenesulfonamide.TFA] | 410 | 650 | 1200
COc1ccc(F)cc1Nc1nc(-c2ccc(OCCN3CCC(F)(F)CC3)cc2)cs1 [Example 67, 4-(4-(2-(4,4-difluoropiperidin-1-yl)ethoxy)phenyl)-N-(5-fluoro-2-methoxyphenyl)thiazol-2-amine.TFA] | > 9000 | 7700 | ≥ 20000
CCN1CCC(c2ccc(-c3csc(Nc4cc(S(N)(=O)=O)ccc4OC(C)C)n3)cc2)CC1 [Example 26, 3-((4-(4-(1-Ethylpiperidin-4-yl)phenyl)thiazol-2-yl)amino)-4-isopropoxybenzenesulfonamide.TFA] | 25 | 46 | 44
CC(C)Oc1ccc(S(N)(=O)=O)cc1Nc1nc(-c2ccc(OCCN3CCOCC3)cc2)cs1 [Example 28, 4-Isopropoxy-3-((4-(4-(2-morpholinoethoxy)phenyl)thiazol-2-yl)amino)benzenesulfonamide.TFA] | 75 | 110 | 100
COc1ccc(F)cc1Nc1nc(-c2ccc(CN3CCOCC3)cc2)cs1 [Example 64, N-(5-fluoro-2-methoxyphenyl)-4-(4-(morpholinomethyl)phenyl)thiazol-2-amine.TFA] | 48000 | 6200 | 2000
COc1ccc(F)cc1Nc1nc(-c2ccc(CN3CCC(F)CC3)cc2)cs1 [Example 62, N-(5-fluoro-2-methoxyphenyl)-4-(4-((4-fluoropiperidin-1-yl)methyl)phenyl)thiazol-2-amine.TFA] | 45000 | 5700 | 1600
COc1ccc(F)cc1Nc1nc(-c2ccc(OCCN3CCN(C4CC4)CC3)cc2)cs1 [Example 70, 4-(4-(2-(4-cyclopropylpiperazin-1-yl)ethoxy)phenyl)-N-(5-fluoro-2-methoxyphenyl)thiazol-2-amine.TFA] | > 76000 | 2100 | 480
CC(C)Cc1ccc(C(N)=O)cc1Nc1nc(-c2ccc(OCCN3CCC(F)CC3)cc2)cs1 [Example 40, 3-((4-(4-(2-(4-fluoropiperidin-1-yl)ethoxy)phenyl)thiazol-2-yl)amino)-4-isobutylbenzamide.TFA] | 190 | 660 | 1300
COc1ccc(F)cc1Nc1nc(-c2ccc(CN3CC[C@@H](F)C3)cc2)cs1 [Example 61, (R)—N-(5-fluoro-2-methoxyphenyl)-4-(4-((3-fluoropyrrolidin-1-yl)methyl)phenyl)thiazol-2-amine.TFA] | 53000 | 5600 | 1500
CCN1CCN(c2ccc(-c3csc(Nc4cc(S(N)(=O)=O)ccc4OC(C)C)n3)cc2)CC1 [Example 4, 3-((4-(4-(4-Ethylpiperazin-1-yl)phenyl)thiazol-2-yl)amino)-4-isopropoxybenzenesulfonamide.TFA] | 110 | 100 | 85
COc1ccc(F)cc1Nc1nc(-c2ccc(OCCCN3CCOCC3)cc2)cs1 [Example 71, N-(5-fluoro-2-methoxyphenyl)-4-(4-(3-morpholinopropoxy)phenyl)thiazol-2-amine.TFA] | 44000 | 1800 | 200
CC(C)Oc1ccc(S(N)(=O)=O)cc1Nc1nc(-c2ccc(CN3CCOCC3)cc2)cs1 [Example 59, 4-isopropoxy-3-((4-(4-(morpholinomethyl)phenyl)thiazol-2-yl)amino)benzenesulfonamide.TFA] | 98 | 180 | 300
NS(=O)(=O)c1cc2c(c(Nc3nc(-c4ccc(OCCN5CCC(F)CC5)cc4)cs3)c1)OCC2 [Example 38, 7-((4-(4-(2-(4-fluoropiperidin-1-yl)ethoxy)phenyl)thiazol-2-yl)amino)-2,3-dihydrobenzofuran-5-sulfonamide.TFA] | 2600 | 3000 | > 20000
COc1ccc(F)cc1Nc1nc(-c2ccc(CN3CCN(C4CC4)CC3)cc2)cs1 [Example 60, 4-(4-((4-cyclopropylpiperazin-1-yl)methyl)phenyl)-N-(5-fluoro-2-methoxyphenyl)thiazol-2-amine.TFA] | 35000 | 9400 | 930
